According to PubChem BioAssay AID1259246 (Broad Institute, 2017):
Several values for one entry are separate records, joined by “and”; a condition that tells them apart may be missing. Equal entries are not always repeated. Results filed as inconclusive are left out. Activity calls are given as the source filed them.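 How the source made its calls: active means valid dose-response fit whose half-maximal growth-inhibiting concentration is at or below a set limit above the top tested dose; inconclusive means flat fit with effect between 30 and 70%, or poor fit; inactive means half-maximal concentration above a set limit.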

Experiment: antibacterial activity against Clostridioides difficile – 10-point retest, dose response (AID 1259246)
Settings: Clostridioides difficile clinical isolate growth, OD600, 24 h; at 60 µM (top of the series)

SMILES | activity change, negative = inhibition
O=C(C[C@@H]1C[C@H]2c3cc(NC(=O)Nc4ccc(F)cc4)ccc3O[C@H]2[C@H](CO)O1)NC1CCCCC1 | 6.83% (inactive)
O=C(O)C[C@H]1C[C@@H]2c3cc(NC(=O)C4CCC4)ccc3O[C@@H]2[C@@H](CO)O1 | -2.3% (inactive)
COc1ccccc1C#Cc1ccc([C@H]2[C@@H](C#N)N(C(=O)C3CCCCC3)[C@H]2CO)cc1 | 5.31% (inactive)
O=C(C[C@@H]1C[C@H]2c3cc(NC(=O)C4CCC4)ccc3O[C@H]2[C@H](CO)O1)NCc1ccc(Cl)cc1 | -4.77% (inactive)
O=C(C[C@H]1C[C@@H]2c3cc(NC(=O)C4CCC4)ccc3O[C@@H]2[C@@H](CO)O1)NCc1ccncc1 | -0.413% (inactive)
C[C@@H]1CN([C@H](C)CO)C(=O)c2cc(C#CCc3ccccc3)cnc2O[C@H]1CN(C)CC1CCCC1 | 19.2% (inactive)
C[C@H](CO)N1C[C@H](C)[C@@H](CN(C)S(=O)(=O)c2cn(C)cn2)OCCCC[C@H](C)Oc2ccc(NC(=O)Nc3cccc4ccccc34)cc2C1=O | 4.46% (inactive)

Same assay, conditions: Clostridioides difficile clinical isolate growth, OD600, 24 h; at 68 µM (top of the series)

SMILES | activity change, negative = inhibition
O=C(C[C@H]1C[C@@H]2c3cc(NC(=O)C4CCC4)ccc3O[C@@H]2[C@@H](CO)O1)NCCN1CCCCC1 | -0.905% (inactive)

Same assay, conditions: Clostridioides difficile clinical isolate growth, OD600, 24 h; at 120 µM (top of the series)

SMILES | activity change, negative = inhibition
C[C@H](CO)N1C[C@H](C)[C@@H](CN(C)C(=O)Nc2cccc3ccccc23)Oc2ccc(NC(=O)CCN3CCOCC3)cc2C1=O | 38.8% (inactive)
COc1ccccc1C#Cc1ccc([C@H]2[C@@H](CO)N(C(=O)C3CC3)[C@H]2C#N)cc1 | 27.5% (inactive)
C[C@H]1CN([C@@H](C)CO)C(=O)c2cccc(NC(=O)Nc3ccccc3)c2O[C@@H]1CN(C)Cc1ccc(Oc2ccccc2)cc1 | 27.9% (inactive)
COc1ccccc1S(=O)(=O)N(C)C[C@@H]1Oc2cc(/C=C/c3ccccc3)ccc2S(=O)(=O)N([C@@H](C)CO)C[C@H]1C | 32.3% (inactive)
Cc1ccc(-c2ccc3c(c2)O[C@H](CN(C)Cc2cccnc2)[C@@H](C)CN([C@@H](C)CO)S3(=O)=O)cc1 | 25.7% (inactive)
CO[C@H]1CN(C)C(=O)c2cc(NC(=O)c3ccc(-c4ccccc4)cc3)ccc2OC[C@@H](C)NC[C@@H]1C | 30.6% (inactive)
C[C@@H]1CCCCO[C@H](CN(C)C)[C@H](C)CN([C@H](C)CO)C(=O)c2cc(NC(=O)c3ccncc3)ccc2O1 | 45.3% (inactive)
CO[C@@H]1CN(C)C(=O)c2cc(NC(=O)c3nc4ccccc4s3)ccc2OC[C@@H](C)N(Cc2ccncc2)C[C@@H]1C | 14.6% (inactive)
C[C@@H]1CN([C@@H](C)CO)C(=O)Cc2cc(NC(=O)CCCN(C)C)ccc2O[C@H]1CN(C)Cc1ccc(C(F)(F)F)cc1 | 23.8% (inactive)
Cc1ccc(-c2ccc3c(c2)O[C@@H](CN(C)Cc2cccnc2)[C@H](C)CN([C@@H](C)CO)S3(=O)=O)cc1 | 10.2% (inactive)
C[C@@H]1CN([C@H](C)CO)S(=O)(=O)c2ccc(C#CC3CCCCC3)cc2O[C@H]1CN(C)Cc1cccnc1 | 18.8% (inactive)
N#C[C@H]1[C@@H](c2ccc(C#CC3CCCCC3)cc2)[C@@H](CO)N1C(=O)Cc1ccccn1 | 40.2% (inactive)
CO[C@@H]1CN(C)C(=O)c2cc(NC(=O)c3ccc(-c4ccccc4)cc3)ccc2OC[C@@H](C)NC[C@@H]1C | 6.12% (inactive)
C[C@@H]1CN([C@H](C)CO)S(=O)(=O)c2ccc(Br)cc2O[C@H]1CN(C)Cc1cccnc1 | 0.001% (inactive)
C[C@@H]1CN([C@H](C)CO)C(=O)c2cc(NC(=O)Nc3cccc4ccccc34)ccc2O[C@@H](C)CCCCO[C@H]1CN(C)S(=O)(=O)c1ccc(F)cc1 | 38% (inactive)
C[C@H](CO)N1C[C@H](C)[C@@H](CN(C)C(=O)c2ccccc2)OCCCC[C@H](C)Oc2ccc(NC(=O)Nc3cccc4ccccc34)cc2C1=O | 37.5% (inactive)
Cc1ccc(-c2ccc3c(c2)O[C@H](CN(C)Cc2ccncc2)[C@@H](C)CN([C@H](C)CO)S3(=O)=O)cc1 | 22.9% (inactive)
CC(C)C#Cc1ccc2c(c1)O[C@H](CN(C)CC1CCOCC1)[C@H](C)CN([C@H](C)CO)S2(=O)=O | 10.2% (inactive)
COc1ccccc1CNC(=O)C[C@H]1C[C@@H]2c3cc(NC(=O)NC4CCCC4)ccc3O[C@@H]2[C@@H](CO)O1 | -0.476% (inactive)
C[C@H](CO)N1C[C@H](C)[C@@H](CN(C)C(=O)NC2CCCCC2)Oc2c(NC(=O)Nc3ccccc3)cccc2C1=O | 12.2% (inactive)
CNC[C@@H]1Oc2cc(-c3ccc(C)cc3)ccc2S(=O)(=O)N([C@@H](C)CO)C[C@H]1C | 10.7% (inactive)

SMILES | activity change, negative = inhibition
C[C@@H]1CN([C@H](C)CO)C(=O)c2cccc(NC(=O)Nc3ccc(C(F)(F)F)cc3)c2O[C@H]1CN(C)Cc1ccncc1 | 56.1% (inactive)
Cc1noc(C)c1NC(=O)Nc1cccc2c1O[C@H](CN(C)Cc1ccc(Cl)c(Cl)c1)[C@H](C)CN([C@@H](C)CO)C2=O | 28.7% (inactive)
C[C@H](CO)N1C[C@H](C)[C@@H](CN(C)Cc2ccc(Oc3ccccc3)cc2)Oc2ccc(NC(=O)C3CC3)cc2CC1=O | 33.9% (inactive)
COc1ccc(NC(=O)Nc2cccc3c2O[C@H](CN(C)Cc2ccc(Oc4ccccc4)cc2)[C@H](C)CN([C@H](C)CO)C3=O)cc1 | -0.653% (inactive)
CC(C)CC#Cc1ccc2c(c1)O[C@@H](CN(C)Cc1ccc3c(c1)OCO3)[C@@H](C)CN([C@@H](C)CO)S2(=O)=O | 22.9% (inactive)
O=S(=O)(Cc1ccccc1)NCC[C@H]1CC[C@H](NS(=O)(=O)c2ccccc2)[C@H](CO)O1 | -7.57% (inactive)
CO[C@@H]1CN(C)C(=O)c2ccc(NC(=O)c3nc4ccccc4s3)cc2OC[C@H](C)N(Cc2ccncc2)C[C@H]1C | 7.34% (inactive)
O=C(C[C@H]1C[C@@H]2c3cc(NS(=O)(=O)c4ccc(F)cc4)ccc3O[C@@H]2[C@H](CO)O1)NCc1ccc(-c2ccccc2)cc1 | 25.5% (inactive)
C/C=C/c1ccc2c(c1)O[C@@H](CN(C)Cc1ccc(C(=O)O)cc1)[C@H](C)CN([C@@H](C)CO)S2(=O)=O | -3.63% (inactive)
O=S(=O)(NCC[C@H]1CC[C@H](NS(=O)(=O)c2ccccc2Cl)[C@H](CO)O1)c1ccc(Cl)cc1 | -7.26% (inactive)
Cc1ccc(S(=O)(=O)N2C[C@@H](O)COC[C@H]3O[C@H](CC(=O)NCc4ccc(Cl)c(Cl)c4)CC[C@@H]32)cc1 | 22.9% (inactive) and 25.2% (inactive) and 97.3% (inactive)
C[C@@H]1CN([C@H](C)CO)C(=O)c2cc(NC(=O)Nc3cccc4ccccc34)ccc2O[C@@H](C)CCCCO[C@@H]1CN(C)S(=O)(=O)c1ccc(F)cc1 | 12% (inactive)
CC(C)CC#Cc1ccc2c(c1)O[C@H](CN(C)Cc1ccc(F)cc1)[C@H](C)CN([C@H](C)CO)S2(=O)=O | 28% (inactive) and 85.7% (inactive)
CC(C)CC#Cc1ccc2c(c1)O[C@@H](CN(C)Cc1ccccc1)[C@H](C)CN([C@@H](C)CO)S2(=O)=O | 32.1% (inactive)
COc1ccc(S(=O)(=O)N(C)C[C@H]2Oc3c(NS(=O)(=O)c4ccccc4)cccc3C(=O)N([C@H](C)CO)C[C@@H]2C)cc1 | 28% (inactive)
C[C@H](CO)N1C[C@H](C)[C@@H](CN(C)C(=O)Nc2ccc(F)cc2)OCCCC[C@H](C)Oc2ccc(NC(=O)Nc3cccc4ccccc34)cc2C1=O | 40.4% (inactive)
O=C(C[C@@H]1C[C@@H]2c3cc(NC(=O)C4CCC4)ccc3O[C@@H]2[C@@H](CO)O1)NCc1ccc(Cl)cc1 | -5.46% (inactive)
C[C@H]1CN([C@@H](C)CO)C(=O)c2cccc(NC(=O)Nc3ccc(C(F)(F)F)cc3)c2O[C@@H]1CN(C)Cc1ccc2c(c1)OCO2 | 34.1% (inactive)
COc1ccc(-c2ccc([C@H]3[C@H](C#N)N(C(=O)C4CCCC4)[C@H]3CO)cc2)cc1 | 5.91% (inactive)
CO[C@@H]1CN(C)C(=O)c2ccc(NC(=O)c3ccc(-c4ccccc4)cc3)cc2OC[C@H](C)NC[C@H]1C | 8.57% (inactive)

Same assay, conditions: Clostridioides difficile clinical isolate growth, OD600, 24 h; at 135 µM (top of the series)

SMILES | activity change, negative = inhibition
Cc1ccc(S(=O)(=O)N[C@H]2CC[C@@H](CCNS(=O)(=O)Cc3ccccc3)O[C@H]2CO)cc1 | 3.07% (inactive)
O=C(C[C@H]1C[C@H]2c3cc(NC(=O)Nc4ccc(F)cc4)ccc3O[C@H]2[C@@H](CO)O1)NC1CCCCC1 | -1.5% (inactive)
C[C@H]1CN([C@@H](C)CO)C(=O)Cc2cc(NC(=O)C3CC3)ccc2O[C@@H]1CN(C)Cc1ccc(Oc2ccccc2)cc1 | 17.9% (inactive)
CO[C@H]1CN(C)C(=O)c2cc(NS(=O)(=O)c3ccc(-c4ccccc4)cc3)ccc2OC[C@H](C)NC[C@H]1C | 10.6% (inactive)
C[C@@H]1CN([C@H](C)CO)C(=O)Cc2cc(NC(=O)C3CC3)ccc2O[C@@H]1CN(C)Cc1ccc(-c2ccccc2)cc1 | 20.9% (inactive)
C[C@@H]1CN([C@H](C)CO)C(=O)c2cc(NC(=O)Nc3cccc4ccccc34)ccc2O[C@@H](C)CCCCO[C@H]1CN(C)S(=O)(=O)c1cn(C)cn1 | 33.1% (inactive)
C[C@H](CO)N1C[C@H](C)[C@H](CN(C)Cc2ccc(-c3ccccc3)cc2)Oc2ccc(NC(=O)C3CC3)cc2CC1=O | 13.1% (inactive)
CO[C@@H]1CN(C)C(=O)c2cc(NC(=O)c3nc4ccccc4s3)ccc2OC[C@H](C)N(Cc2ccncc2)C[C@H]1C | 7% (inactive)
C[C@@H]1CN([C@@H](C)CO)C(=O)Cc2cc(NC(=O)C3CC3)ccc2O[C@@H]1CN(C)Cc1ccccc1 | 0.355% (inactive)
CNC[C@H]1Oc2c(NC(=O)Nc3ccc(F)cc3)cccc2C(=O)N([C@H](C)CO)C[C@@H]1C | 0.222% (inactive)
